Values joined by “and” are separate entries in the source; they are usually repeats but may differ in a detail not shown here. Equal entries are not always repeated.

One experiment addresses MAP3K5 (Homo sapiens, UniProt Q99683). The experiment in a line: KiNativ, OCI cells live cell. It counts as cell-based. As to conditions: 2 h, labeling site Lys2, peptide […].
The next experiment relates to ABL, ARG. The experiment in a line: KiNativ, OCI cells live cell. Format: cell-based, human.
Another experiment concerns AurA, AurB, AurC. The experiment in a line: KiNativ, OCI cells live cell. The settings on record: labeling site ATP Loop, peptide GKFGNVYLAR
It counts as cell-based, human.

The target of the next experiment is PIP4K2A (Homo sapiens, UniProt P48426). The experiment in a line: KiNativ, OCI cells live cell. It counts as cell-based. The settings on record: 2 h, labeling site ATP, peptide […].
The next experiment addresses PIP4K2B (Homo sapiens, UniProt P78356). Briefly: KiNativ, OCI cells live cell. Format: cell-based. The settings on record: 2 h, labeling site ATP, peptide […].
A further experiment has as its target MAP3K2 (Homo sapiens, UniProt Q9Y2U5). The experiment in a line: KiNativ, OCI cells live cell. The settings on record: 2 h, labeling site Lys1, peptide […]. It counts as cell-based.
In the next experiment the target is NDR1 (Homo sapiens, UniProt Q15208). Briefly: KiNativ, OCI cells live cell. It counts as cell-based. As to conditions: 2 h.
The next experiment has as its target PLK1 (Homo sapiens, UniProt P53350). Briefly: KiNativ, OCI cells live cell. Format: cell-based. The settings on record: 2 h.
The target of a further experiment is LCK (Homo sapiens, UniProt P06239). Briefly: KiNativ, OCI cells live cell. Format: cell-based. The settings on record: 2 h, labeling site Activation Loop, peptide […].
For another experiment, the target named is T1, ULK1 (Homo sapiens, UniProt O75385).
T1 sequence (O75385 1-1050): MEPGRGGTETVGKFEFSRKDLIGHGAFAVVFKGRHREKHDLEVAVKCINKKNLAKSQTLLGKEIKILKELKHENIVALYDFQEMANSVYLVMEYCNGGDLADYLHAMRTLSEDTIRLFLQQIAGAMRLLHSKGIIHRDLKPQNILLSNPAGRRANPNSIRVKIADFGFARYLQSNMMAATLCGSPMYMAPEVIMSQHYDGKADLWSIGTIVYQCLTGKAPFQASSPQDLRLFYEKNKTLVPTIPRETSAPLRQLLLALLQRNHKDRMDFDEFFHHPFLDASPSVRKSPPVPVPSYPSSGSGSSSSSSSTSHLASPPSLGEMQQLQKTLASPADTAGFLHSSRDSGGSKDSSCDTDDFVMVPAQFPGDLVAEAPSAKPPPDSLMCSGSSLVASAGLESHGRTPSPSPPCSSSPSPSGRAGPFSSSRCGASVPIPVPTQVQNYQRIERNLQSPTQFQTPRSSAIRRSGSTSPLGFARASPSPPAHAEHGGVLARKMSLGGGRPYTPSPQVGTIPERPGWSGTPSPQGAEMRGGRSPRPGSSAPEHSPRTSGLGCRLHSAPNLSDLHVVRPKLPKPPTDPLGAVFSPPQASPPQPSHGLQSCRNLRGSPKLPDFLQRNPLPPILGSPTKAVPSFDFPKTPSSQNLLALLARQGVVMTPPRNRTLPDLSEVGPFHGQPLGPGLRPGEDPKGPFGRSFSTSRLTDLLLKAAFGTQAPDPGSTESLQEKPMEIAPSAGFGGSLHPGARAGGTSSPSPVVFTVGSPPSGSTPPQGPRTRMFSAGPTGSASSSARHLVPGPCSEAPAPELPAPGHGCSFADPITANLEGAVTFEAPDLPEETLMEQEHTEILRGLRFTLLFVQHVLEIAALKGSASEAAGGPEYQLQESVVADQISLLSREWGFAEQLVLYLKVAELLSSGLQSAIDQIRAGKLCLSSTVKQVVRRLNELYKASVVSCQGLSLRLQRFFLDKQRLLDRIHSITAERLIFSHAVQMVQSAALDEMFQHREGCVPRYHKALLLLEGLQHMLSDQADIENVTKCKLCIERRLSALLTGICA
The experiment in a line: KiNativ, OCI cells live cell. Format: cell-based.

Another experiment deals with T2, FLT3 (Homo sapiens, UniProt P36888).
T2 construct: purchased Eurofins DiscoverX
Briefly: KdELECT binding assay. The settings on record: FLT3 WT.

The test system of the next experiment is NDR1, NDR2. Briefly: KiNativ, OCI cells live cell. Format: cell-based, human. As to conditions: labeling site Activation Loop, peptide LSDFGLCTGLKK
A further experiment has as its target CK2a1 (Homo sapiens, UniProt P68400). The experiment in a line: KiNativ, OCI cells live cell. Format: cell-based. As to conditions: 2 h, labeling site Protein Kinase Domain, peptide […].
A further experiment addresses HPK1 (Homo sapiens, UniProt Q92918). Briefly: KiNativ, OCI cells live cell. It counts as cell-based. The settings on record: 2 h.
The target in a further experiment is T3, TYK2 domain2 (Homo sapiens, UniProt P29597).
T3 construct: TYK2 domain2
Briefly: KiNativ, OCI cells live cell. It counts as cell-based.

The target in another experiment is GSK3B (Homo sapiens, UniProt P49841). The experiment in a line: KiNativ, OCI cells live cell. It counts as cell-based. The settings on record: 2 h, labeling site Lys2, peptide […].
In another experiment the test system is MAPKAPK2, MAPKAPK3. Briefly: KiNativ, OCI cells live cell. Format: cell-based, human. As to conditions: labeling site Lys2, peptide DVKPENLLYTSK
A further experiment addresses MST2 (Homo sapiens, UniProt Q13188). Briefly: KiNativ, OCI cells live cell. Format: cell-based. The settings on record: 2 h, labeling site Lys1, peptide […].

T3 sequence (P29597 whole entry, the tested form may be a part): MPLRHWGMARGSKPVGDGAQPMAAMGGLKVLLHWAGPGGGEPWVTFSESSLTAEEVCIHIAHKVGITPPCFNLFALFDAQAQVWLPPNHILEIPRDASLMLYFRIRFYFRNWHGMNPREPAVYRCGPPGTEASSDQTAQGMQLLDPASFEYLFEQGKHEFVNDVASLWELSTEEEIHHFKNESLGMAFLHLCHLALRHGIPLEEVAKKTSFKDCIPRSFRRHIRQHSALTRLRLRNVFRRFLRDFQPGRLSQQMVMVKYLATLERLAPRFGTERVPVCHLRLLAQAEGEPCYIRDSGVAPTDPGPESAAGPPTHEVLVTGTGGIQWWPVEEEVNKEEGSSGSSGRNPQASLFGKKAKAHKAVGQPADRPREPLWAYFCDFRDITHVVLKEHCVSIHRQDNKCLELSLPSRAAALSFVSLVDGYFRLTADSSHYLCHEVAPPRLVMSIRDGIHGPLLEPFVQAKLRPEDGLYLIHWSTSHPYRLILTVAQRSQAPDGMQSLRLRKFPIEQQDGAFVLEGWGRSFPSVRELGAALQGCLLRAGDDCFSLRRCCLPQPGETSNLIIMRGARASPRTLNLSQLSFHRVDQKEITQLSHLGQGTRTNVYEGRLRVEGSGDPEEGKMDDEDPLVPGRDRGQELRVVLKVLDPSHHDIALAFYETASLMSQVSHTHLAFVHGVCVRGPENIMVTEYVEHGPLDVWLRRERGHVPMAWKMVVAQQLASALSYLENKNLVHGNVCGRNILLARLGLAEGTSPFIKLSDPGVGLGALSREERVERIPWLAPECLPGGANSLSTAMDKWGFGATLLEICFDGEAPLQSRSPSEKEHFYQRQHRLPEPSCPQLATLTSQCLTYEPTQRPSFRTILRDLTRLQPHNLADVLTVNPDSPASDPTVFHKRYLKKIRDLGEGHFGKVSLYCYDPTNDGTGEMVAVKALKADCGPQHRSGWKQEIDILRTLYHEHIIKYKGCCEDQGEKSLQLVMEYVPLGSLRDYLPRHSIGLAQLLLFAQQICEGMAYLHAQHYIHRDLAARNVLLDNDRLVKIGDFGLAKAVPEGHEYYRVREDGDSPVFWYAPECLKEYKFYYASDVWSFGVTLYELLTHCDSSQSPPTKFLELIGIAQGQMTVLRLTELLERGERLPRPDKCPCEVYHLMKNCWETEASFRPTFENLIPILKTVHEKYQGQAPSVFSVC
Chain of NDR1 (Q15208 whole entry): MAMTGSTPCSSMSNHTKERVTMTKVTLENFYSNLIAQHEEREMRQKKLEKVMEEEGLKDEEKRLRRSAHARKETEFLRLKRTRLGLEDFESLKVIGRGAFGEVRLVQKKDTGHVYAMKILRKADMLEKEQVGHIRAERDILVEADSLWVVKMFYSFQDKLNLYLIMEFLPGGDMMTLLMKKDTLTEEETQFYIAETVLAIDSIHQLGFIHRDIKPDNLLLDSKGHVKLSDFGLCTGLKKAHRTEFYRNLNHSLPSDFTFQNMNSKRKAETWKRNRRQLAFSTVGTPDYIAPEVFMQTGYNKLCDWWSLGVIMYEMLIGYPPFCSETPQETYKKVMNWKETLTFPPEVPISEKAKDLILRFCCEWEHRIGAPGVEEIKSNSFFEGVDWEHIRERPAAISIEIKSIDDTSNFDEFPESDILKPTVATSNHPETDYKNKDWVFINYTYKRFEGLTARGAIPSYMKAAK
Chain of PLK1 (P53350 whole entry): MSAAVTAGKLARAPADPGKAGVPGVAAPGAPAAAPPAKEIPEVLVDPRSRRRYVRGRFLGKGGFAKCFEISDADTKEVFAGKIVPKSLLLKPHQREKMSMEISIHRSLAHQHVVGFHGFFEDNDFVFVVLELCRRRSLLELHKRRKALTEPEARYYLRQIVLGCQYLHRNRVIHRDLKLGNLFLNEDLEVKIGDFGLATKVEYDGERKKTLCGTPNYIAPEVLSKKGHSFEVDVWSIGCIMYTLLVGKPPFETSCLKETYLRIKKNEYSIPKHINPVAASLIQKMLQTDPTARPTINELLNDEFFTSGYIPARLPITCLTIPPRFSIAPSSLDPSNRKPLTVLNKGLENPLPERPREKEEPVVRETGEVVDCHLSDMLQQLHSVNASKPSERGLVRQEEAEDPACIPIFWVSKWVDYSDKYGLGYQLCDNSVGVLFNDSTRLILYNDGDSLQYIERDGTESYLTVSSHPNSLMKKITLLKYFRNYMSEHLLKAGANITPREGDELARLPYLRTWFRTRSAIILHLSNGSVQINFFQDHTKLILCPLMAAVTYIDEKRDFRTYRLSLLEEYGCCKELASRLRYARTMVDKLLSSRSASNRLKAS
Chain of HPK1 (Q92918 whole entry, the tested form may be a part): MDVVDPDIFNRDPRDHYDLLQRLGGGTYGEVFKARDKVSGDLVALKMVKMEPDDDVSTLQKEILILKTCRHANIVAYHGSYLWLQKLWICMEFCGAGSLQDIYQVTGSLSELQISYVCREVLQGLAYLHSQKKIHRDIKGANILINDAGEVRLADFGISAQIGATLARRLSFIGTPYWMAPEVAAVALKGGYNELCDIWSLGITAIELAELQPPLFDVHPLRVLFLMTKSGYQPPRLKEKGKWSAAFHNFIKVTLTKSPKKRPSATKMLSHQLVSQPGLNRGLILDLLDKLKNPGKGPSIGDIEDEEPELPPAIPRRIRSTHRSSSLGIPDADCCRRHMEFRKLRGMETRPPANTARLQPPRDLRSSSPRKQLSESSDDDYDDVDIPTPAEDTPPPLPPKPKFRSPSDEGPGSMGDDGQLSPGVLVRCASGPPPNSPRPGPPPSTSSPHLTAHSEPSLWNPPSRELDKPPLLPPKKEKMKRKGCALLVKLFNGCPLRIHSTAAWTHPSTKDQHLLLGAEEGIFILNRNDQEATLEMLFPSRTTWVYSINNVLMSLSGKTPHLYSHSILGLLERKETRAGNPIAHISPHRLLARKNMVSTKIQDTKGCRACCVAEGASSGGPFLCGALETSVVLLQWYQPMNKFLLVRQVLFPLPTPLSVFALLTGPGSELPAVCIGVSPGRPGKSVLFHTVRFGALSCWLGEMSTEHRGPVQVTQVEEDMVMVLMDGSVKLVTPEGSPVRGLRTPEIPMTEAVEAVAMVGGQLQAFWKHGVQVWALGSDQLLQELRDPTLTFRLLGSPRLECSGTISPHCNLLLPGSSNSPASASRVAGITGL
T2 sequence (P36888 27-993): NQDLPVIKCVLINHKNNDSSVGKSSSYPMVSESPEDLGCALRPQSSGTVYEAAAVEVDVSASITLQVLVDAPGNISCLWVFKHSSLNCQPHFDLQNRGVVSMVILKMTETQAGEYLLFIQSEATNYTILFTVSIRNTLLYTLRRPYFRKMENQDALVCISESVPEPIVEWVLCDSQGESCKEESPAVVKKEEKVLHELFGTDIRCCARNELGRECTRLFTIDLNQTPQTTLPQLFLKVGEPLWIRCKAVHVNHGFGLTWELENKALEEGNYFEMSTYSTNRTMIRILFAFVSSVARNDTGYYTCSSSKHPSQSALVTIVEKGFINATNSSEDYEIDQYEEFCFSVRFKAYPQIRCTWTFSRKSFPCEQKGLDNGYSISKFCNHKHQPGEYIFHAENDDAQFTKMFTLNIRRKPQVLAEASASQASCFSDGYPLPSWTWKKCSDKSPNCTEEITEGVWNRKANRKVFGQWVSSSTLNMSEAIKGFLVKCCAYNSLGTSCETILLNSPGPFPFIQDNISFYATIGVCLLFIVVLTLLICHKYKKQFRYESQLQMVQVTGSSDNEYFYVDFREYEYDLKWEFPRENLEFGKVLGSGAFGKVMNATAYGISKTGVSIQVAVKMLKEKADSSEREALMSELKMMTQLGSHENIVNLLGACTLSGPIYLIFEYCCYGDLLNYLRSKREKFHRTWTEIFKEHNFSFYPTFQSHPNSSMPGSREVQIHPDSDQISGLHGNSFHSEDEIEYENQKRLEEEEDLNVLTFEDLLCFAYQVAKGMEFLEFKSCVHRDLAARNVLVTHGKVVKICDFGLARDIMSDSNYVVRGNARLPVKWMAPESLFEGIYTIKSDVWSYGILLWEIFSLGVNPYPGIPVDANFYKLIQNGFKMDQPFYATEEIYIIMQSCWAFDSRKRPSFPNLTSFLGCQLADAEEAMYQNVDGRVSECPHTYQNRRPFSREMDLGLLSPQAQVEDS
Chain of CK2a1 (P68400 whole entry, the tested form may be a part): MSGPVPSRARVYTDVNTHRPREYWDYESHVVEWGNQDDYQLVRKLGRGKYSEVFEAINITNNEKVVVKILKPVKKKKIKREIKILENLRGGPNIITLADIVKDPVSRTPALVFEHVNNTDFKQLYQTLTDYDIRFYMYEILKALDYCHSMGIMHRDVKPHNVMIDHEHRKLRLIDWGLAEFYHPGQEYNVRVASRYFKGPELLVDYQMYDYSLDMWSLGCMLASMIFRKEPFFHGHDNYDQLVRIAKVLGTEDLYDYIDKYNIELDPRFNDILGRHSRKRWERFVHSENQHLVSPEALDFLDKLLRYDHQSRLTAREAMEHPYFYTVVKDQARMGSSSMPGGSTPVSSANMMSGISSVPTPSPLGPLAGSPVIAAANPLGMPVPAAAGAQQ
Chain of MST2 (Q13188 whole entry): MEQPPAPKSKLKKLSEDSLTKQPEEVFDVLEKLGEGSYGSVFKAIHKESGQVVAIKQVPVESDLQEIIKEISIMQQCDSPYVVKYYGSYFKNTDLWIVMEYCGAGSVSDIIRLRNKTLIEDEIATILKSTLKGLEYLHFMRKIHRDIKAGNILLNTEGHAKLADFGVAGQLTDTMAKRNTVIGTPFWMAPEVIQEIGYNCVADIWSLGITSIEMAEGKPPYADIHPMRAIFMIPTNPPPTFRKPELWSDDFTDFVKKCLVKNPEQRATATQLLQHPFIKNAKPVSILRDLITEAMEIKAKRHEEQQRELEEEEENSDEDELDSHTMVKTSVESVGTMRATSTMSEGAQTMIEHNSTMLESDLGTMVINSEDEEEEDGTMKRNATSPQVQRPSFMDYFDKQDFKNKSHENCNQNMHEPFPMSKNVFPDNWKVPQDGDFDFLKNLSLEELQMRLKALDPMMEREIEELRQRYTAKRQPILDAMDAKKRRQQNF

Turning to `CN1CCN(Cc2ccc(Nc3ncc(Cl)c(Nc4ccccc4S(=O)(=O)N(C)C)n3)cc2)CC1` [TP-0903], the inhibition at 0.1 µM against MAP3K5 is -1.8%; on PIP4K2A, -17.8%; at PIP4K2B it was -24.4%; on MAP3K2, 30.6%; on NDR1 (labeling site Lys1, peptide DTGHVYAMKILR), 12.3%; against NDR1 (labeling site Lys2, peptide DIKPDNLLLDSK) it was -7.7%. Moreover, the inhibition at 0.1 µM is -5% against PLK1 (labeling site Lys1, peptide CFEISDADTKEVFAGKIVPK); -4.3% on PLK1 (labeling site Lys2, peptide DLKLGNLFLNEDLEVK); -4.3% at LCK; -50.8% against CK2a1; 81% against HPK1 (labeling site Lys1, peptide DKVSGDLVALKMVK); 78.7% against HPK1 (labeling site Lys2, peptide DIKGANILINDAGEVR). Further, the inhibition at 0.1 µM was determined as 32.3% against GSK3B and 7.3% against MST2. In addition, the Inhibition in the experiment on ABL, ARG (labeling site Activation Loop, peptide LMTGDTYTAHAGAKFPIK) is on record as 37.3%; in the experiment on ABL, ARG (labeling site Lys1, peptide YSLTVAVKTLKEDTMEVEEFLK), 40.1%; in the experiment on AurA, AurB, AurC, 91.0%; on ULK1 (labeling site Lys1, peptide HDLEVAVKCINKK), 23.3%; at ULK1 (labeling site Lys2, peptide DLKPQNILLSNPAGR) it was 59.5%; in the experiment on NDR1, NDR2, 18.3%. Further, the Inhibition on TYK2 domain2 (labeling site Activation Loop, peptide IGDFGLAKAVPEGHEYYR) is recorded as -38.7%; at TYK2 domain2 (labeling site Lys1, peptide VSLYCYDPTNDGTGEMVAVKALK), 21.1%; with MAPKAPK2, MAPKAPK3, -42.8%. Further, the equilibrium dissociation constant (Kd) at FLT3 was 0.93 nM and < 5 nM.

The inhibition is the relative decrease from the control value, in per cent. Broadly, the Inhibition is the relative decrease from the control value, in per cent. A word on the Kd: it is the free concentration of one partner at which half of the binding sites on the other are occupied at equilibrium, for simple one-to-one binding.

The values are drawn from PMC7714403 (JCI Insight, 2020).
